# Values of other authors as cited in patent US10428083B2, “Heterocyclylmethyl-thienouracile as antagonists of the adenosine-A2B-receptor” (BAYER PHARMA AKTIENGESELLSCHAFT, priority 2015, dated 2019).
# Assays:
# [1] = system: prostate cancer cell lines; details: A2b receptor antagonist; cited from earlier work
# melanoma animal models = details: cited from earlier work
structure (smiles),measurement,setting,value
CCCn1c(=O)[nH]c2nc(-c3ccc(S(=O)(=O)N4CCN(c5ccc(Cl)cc5)CC4)cc3)[nH]c2c1=O [PSB603],growth of several prostate cancer cell lines,[1],reduces the growth
same,tumour growth and metastasis,melanoma animal models,reduction in tumour growth and metastasis
